# Like-named read-outs stand apart in the source and are kept apart here. Square brackets hold non-standard residues; d marks the D form. Peptide text beside a SMILES is read from it. Orn = NCCC[C@H](N)C(=O)O
# Key:
# [1] = parameters: method as in PMID 20518462; details: nitrotyrosine side chain; cited from earlier work
# [2] = 37 °C, RP-HPLC
# Experimental: Peptide stability in serum is another limiting factor for AMPs as novel antibiotics.[30]
# Peptide serum stability was performed according to D́Aloisio et al.[30] and Chen et al.[51] with some minor modifications. The serum stability was investigated using human serum (Sigma-Aldrich) from Human male AB plasma, USA origin, sterile-filtered. 250 μL serum was temperature-equilibrated at 37 °C and 100 μL aqueous peptide solution (L2: 1 mM; L3: 0.9 mM; L3-K: 0.7 mM; and C3: 0.5 mM) was added. RP-HPLC was measured at time intervals of 0, 0.5, 1, 4, and 24 h. For RP-HPLC samples, 30 μL of peptide solution was taken, 7 μL of Fmoc-Gly solution (4 mM) was added, and 2 μL of the sample was injected to HPLC. […]
# Figure S 133. RP-HPLC chromatogram (gradient from 10 to 90% acetonitrile in water over 10 min at 2
# ml/min, detection at 254 nm) of peptides tested for serum stability. A) peptide L2 B) peptide L3. C)
# (1 picture or pasted object on this page, not shown here)
# [3] = tested on: human embryonic kidney (HEK) cells; assay type: cell-based
# Experimental: (§1) To confirm the peptide selectivity toward bacteria cells, cytotoxicity assays of synthesized peptides L2, L3, L3-K, and C3 against human embryonic kidney (HEK) and hepatoblastoma (HepG2) were performed (Figure 4). The cell viability was assessed using resazurin 24 h post peptide exposure. The line at 70% cell viability marks out the threshold for cytotoxic potential compared to the negative control.
# (§2) Figure 4 Cell viability assessment using the resazurin assay 24 h post peptide exposure: (a) HepG2 and (b) HEK cells were treated with various concentrations of the peptides C3, L3, L3-K, and L2. Triton-X was used as a positive control. Cells cultured in pure cell media were used as negative controls and were considered to have 100% cell viability. The line represents the threshold for cytotoxicity level of 70% of cell viability compared to the negative control. Data are presented as the mean ± SD of three biological replicates of the HepG2 cells and the mean ± SD of two biological replicates of the HEK cells.
# (§3) Cytotoxicity against human embryonic kidney (HEK) and hepatoblastoma (HepG2) cell lines was assessed. Cells were grown to an initial seeding density of 10 000 cells per well. Metabolic activity was determined in a resazurin-based assay. HEK and HepG2 cells were exposed to four different concentrations of the peptides for 24 h. Treatment with Triton X-100 at 1% v/v was used as a positive control. Following this exposure period, the cells were treated with resazurin at a final concentration of 0.015 mg/mL for 3 h. The metabolic activity was then determined in an resazurin-based assay. The fluorescence intensities were quantified in a Hidex Sense microplate reader using an excitation wavelength of 544 nm and an emission wavelength of 590 nm.
# C. albicans = assay: microbe, parasite or virus in culture; assay type: cell-based; details: 16 h
# [4] = tested on: hepatoblastoma (HepG2) cells; assay type: cell-based, human
# Experimental: as §1, §2, §3
# S. aureus = assay: microbe, parasite or virus in culture; assay type: cell-based; details: 16 h
# E. coli CCUG31246 [5] = assay type: cell-based
# Experimental: MICs were performed under the same growth conditions used for mode of action analysis following the guidelines issued by the Clinical Laboratory Standardization Institute (CLSI) with slight modifications. Serial two-fold dilutions of the peptides were prepared in 1:10 BHI in a sterile 96-well plate and subsequently inoculated with 5 × 10^5 CFU/mL of E. coli CCUG31246. […] The following MICs were obtained: C3: 512 μg/mL, L3: 64 μg/mL, and L3-K: 128 μg/mL. These concentrations were used for all mechanistic experiments. Polymyxin B was used as a positive control in all assays at a final concentration of 10 μg/mL.
# [6] = tested on: Escherichia coli (CCUG 31246); assay: Minimum microbicidal concentration (MMC99) assay; assay type: cell-based, E. coli; details: BHI diluted 1/100, 37 °C, median, n = 3
# Experimental: The microbicidal activity of the synthetic peptides was assessed against S. aureus (ATCC 12600; American Type Culture Collection, Manassas, VA, USA), Escherichia coli (CCUG 31246; Culture Collection, University of Gothenburg, Sweden), and Candida albicans (ATCC 64549/CCUG31028) using an MMC assay, as described previously by […] et al. (specific details in Supporting Information, pages 10, 11).[28] The assay was performed in BHI diluted 1/100 (BHI100). […] page 11: Table S5. Energy and structural ensembles of synthesized peptides. […] Energy -3887.06 -3620.88 -4968.42 -2163.76 -2646.75 Van der Waals solv. Energy 117.32 91.57 183.20 -88.88 -139.89 Mean RMSD* (Å), mean±SD […] Heavy atoms 1.87 ± 0.33 1.77 ± 0.50 0.98 ± 0.34 0.63 ±0.22 2.88 ±0.62 MMC99 activity including salt stability measurements Antimicrobial activity of L2 and L3 in the presence of NaCl. 1Table S6. Peptide MMC99 (μg/ml) sin NaCl S. aureus E.coli C. albicans (mM) 2[…] 0 50 25 25 85 - - - - - - >200 >200 >200 150 - - - - - - >200 >200 >200 3L 0 12.5 12.5 25 12,5 6.3 6.3 12.5 6.3 12.5 […] 150 >400 >400 (-)2 >400 >400 >400 >200 >200 >200 […] or 150 mM NaCl. L2 and L3 were serially diluted in twofold steps with a starting dilution of 200 μg/ml […] All sample dilutions were run in duplicates (L2) or triplicates (L3). 2 The growth of S. aureus at 24 h in BHI 100 with 85 or 150 mM NaCl was reduced. Minimum microbicidal concentration (MMC), killing 99% of the inoculum. All microorganisms were cultured in brain-heart infusion broth (BHI) overnight on a shaker at 37°C. The cultures were thereafter transferred to fresh BHI broth in volumes constituting 10% of total, and incubated for an additional 2 h to reach exponential growth phase. The bacterial cultures were washed once in BHI diluted 1/100 (BHI100), followed by resuspension in BHI100. The cell suspensions were diluted to a density of […] (bacteria) or 2x10^7 CFU/ml (yeast), as estimated by optical density measurement at 590 nm. […] Serum stability Figure S 133. […] A) peptide L2 B) peptide L3. C) peptide L3-K. D) peptide C3.
# E. coli CCUG31246 [7] = assay: DiSC(3)5 microscopy (membrane potential); assay type: cell-based; details: 1× MIC of peptide, polymyxin B 10 μg/mL; 10 min; 0.5 μM DiSC(3)5
# Excerpt: Propidium iodide is a large organic molecule that is not suitable to detect smaller ion-conducting pores or channels induced by antimicrobials. To assess whether the peptides may form smaller membrane pores sufficient for the passage of ions, we tested their effects on the membrane potential using the fluorescence probe DiSC(3)5.[40] This dye accumulates in the cell membrane in a membrane potential-dependent manner and disassociates, when the membrane potential is dissipated. […] This effect can be clearly seen with polymyxin B (Figure 7b).
# The membrane potential of E. coli CCUG31246 and E. coli MC4100 carrying pABCON2-fhuA ΔC/Δ4L was measured by DiSC(3)5 microscopy according to ref. ([40]) with minor modifications. Cells were grown in 1:10 BHI containing 50 μg/mL bovine serum albumin to an OD600 of 0.3 prior to antibiotic treatment with the respective peptides for 10 and 60 min. Samples were stained with 0.5 μM DiSC(3)5 for 15 min (added 5 min before adding antibiotics for the 10 min time point and after 45 min of antibiotic treatment for the 60 min time point). Stained samples were spotted on 1.2% agarose, sealed with a gene frame, and imaged immediately. Microscopy was performed as described above, and fluorescence intensity was analyzed with the same parameters used for propidium iodide detection.
# E. coli CCUG31246 [8] = assay: Bacterial cytological profiling (DAPI, FM4-64, phase contrast); assay type: cell-based; details: polymyxin B 10 μg/mL
# Experimental: To gain insight into the peptides’ antimicrobial mechanisms, bacterial cytological profiling was performed. This live-cell imaging method makes use of different fluorescent dyes and protein fusions together with phase contrast microscopy to assess the phenotype of bacterial cells after antibiotic treatment.[33] Single-cell analysis then gives insight into the extent and population heterogeneity of the observed phenotypic effects. In this study, we used the DNA dye DAPI and the membrane dye FM4-64 and analyzed the effects of the compounds on cell length, nucleoid compaction, and membrane morphology (Figures 6 and S15). […] In the preparation of mechanistic studies, MICs were determined. […]
# Bacterial cytological profiling was performed according to Wenzel et al.[34] […] Stained samples were spotted on 1.2% agarose films, sealed with a gene frame, and immediately imaged using a Nikon Eclipse Ti2 inverted fluorescence live-cell imaging system equipped with a CFI Plan Apochromat DM Lambda 100X Oil objective (N.A. = 1.45 and W.D. = 0.13 mm), a Photometrics, PRIME BSI camera, a Lumencor Sola SE II FISH 365 light source, and an Okolab temperature incubation chamber. Images were obtained using the NIS elements AR software version 5.21.03 and were processed and analyzed with ImageJ.[53] Quantification of microscopy images was performed using the ImageJ plugins ObjectJ[54] and MicrobeJ.[55] […]
# E. coli CCUG31246 [9] = assay: Propidium iodide staining (pore formation); assay type: cell-based; details: 1× MIC of peptide, polymyxin B 10 μg/mL; 10 and 60 min
# Experimental: Due to the overall similarity of the peptides’ cytological profiles to that of polymyxin B, we further tested their ability to form pores in the cell membrane. To this end, we used the fluorescence probe propidium iodide, which cannot cross intact membranes but can enter cells through pores of sufficient size.[39]
# Pore formation was investigated with the fluorescence dye propidium iodide as described previously[56] with minor modifications. E. coli CCUG31246 was grown to an OD600 of 0.3 and subsequently treated with different peptides for 10 and 60 min. Samples were stained with 1 μg/mL propidium iodide for 15 min (added 5 min before adding antibiotics for the 10 min time point and after 45 min of antibiotic treatment for the 60 min time point), spotted on 1.2% agarose films, and sealed with a gene frame. Microscopy was performed as described above. The fluorescence intensity of the different samples was analyzed with MicrobeJ. For detection of bacterial cells from phase contrast images, parameters were set to an area of 1.5-max, length of 1-max, width 0.5–2.5, curvature 0–1.5, and an angularity of 0–0.5. Fluorescence intensity parameters were set to an area of 1.5-max, length of 1-max, and width 0.5–2.5. All other parameters remained at default settings.
molecule,measurement,setting,value
N[C@@H](Cc1ccc(O)c([N+](=O)[O-])c1)C(=O)O [Y-NO2],pKa value,[1],7.1
CC(C)[C@@H](NC(=O)[C@H](CCCN)NC(=O)[C@@H](NC(=O)[C@H](CCCN)NC(=O)[C@H](Cc1c[nH]c2ccccc12)NC(=O)[C@@H](C)NC(=O)[C@H](NC(=O)[C@@H](C)N)C(C)C)[C@@H](C)O)C(=O)N[C@@H](CCCCN)C(N)=O [L2] (H-[dA][dV][dA]W[Orn]T[Orn][dV]K-NH2),stability in human serum,"[2]; human serum from male AB plasma, 250 μL serum + 100 μL aqueous peptide solution (L2 1 mM; L3 0.9 mM; L3-K 0.7 mM; C3 0.5 mM), 0, 0.5, 1, 4, 24 h, Fmoc-Gly internal standard",stable after 24 h
same,"additional peaks / shoulder in chromatogram after 24 h in serum, total volume percentage","[2]; human serum, 24 h, detection at 254 nm",0.4%
same,"cytotoxicity, cell viability HEK",[3],no cytotoxicity at any tested concentration
same,C. albicans MIC,C. albicans,>512 µg/mL
same,"cytotoxicity, cell viability HepG2",[4],no cytotoxicity at any tested concentration
same,S. aureus MIC,S. aureus,>512 µg/mL
same,E. coli MIC,"E. coli CCUG31246 [5]; CCUG31246, 16 h",>512 µg/mL
"polymyxin B [PolB, reference compound]",E. coli MMC99 2 h,[6]; 2 h,<1.6 µg/mL
same,E. coli MMC99 6 h,[6]; 6 h,<1.6 µg/mL
same,E. coli MMC99 24 h,[6]; 24 h,<1.6 µg/mL
same,"membrane potential, DiSC(3)5 fluorescence, 10 min",E. coli CCUG31246 [7],clear and immediate reduction in the DiSC(3)5 fluorescence intensity
same,cells with unstained (reduced FM4-64 membrane stain) phenotype after 10 min,E. coli CCUG31246 [8],over 90%
same,propidium iodide uptake,E. coli CCUG31246 [9],near-instantaneous uptake of the dye throughout the bacterial population
same,E. coli MIC,"E. coli CCUG31246 [5]; 1:10 BHI, 5 × 10^5 CFU/mL, 37 °C, 16 h, highest concentration 512 μg/mL, median, n = 3",2.3 µg/mL

# — PMC10788856, “Mimicking Nonribosomal Peptides from the Marine Actinomycete Streptomyces sp. H-KF8 Leads to Antimicrobial Peptides” (ACS Infectious Diseases, 2023)
